Laboratory results as given in patent US20230233500A1, “Gasdermin D (GSDMD) Succination for the Treatment of Inflammatory Disease” (University of Massachusetts, priority 2020, published 2023).
Counter-ions that a name gives are not always drawn.

Tests used:
BMDMs = experiment: Pyroptosis in BMDMs after transfected LPS, Salmonella infection or poly (dA:dT); type: cell-based, mouse
Experimental: FIGS. 5A-G. Fumarate inhibits pyroptosis. (A) SYTOX Orange and Hoechst stained WT BMDMs treated with LPS for 2 hours, DMSO (vehicle) or fumarate (25 μM) for 1 hour and nigericin for 6 hours. (B) LDH assay conditioned medium from WT BMDMs treated with LPS for 3 hours, nigericin for the indicated times and DMSO (vehicle) or fumarate (25 μM) 15 minutes after each nigericin (10 μM) timepoint. (C) Immunoblot analysis of GSDMD in BMDMs treated as in […]. (D-E) LDH (D) and immunoblot analysis of GSDMD and β-actin in lysates (E) from WT BMDMs treated with DMSO (vehicle) or fumarate ([…]) for 1 hour followed by salmonella infection (MOI 10) for 6 hours. (F-G) LDH (F) and immunoblot analysis of GSDMD and β-actin in lysates (G) from WT BMDMs primed with LPS for 2 hours, followed by treatment with fumarate (25 μM) transfection with Poly (dA:dT) (1 μg). A, C, E, G are representative of 3 independent experiments. B, D, F are pooled data from 3 independent experiments. ***, P<0.001, ****, P<0.00001 (Two-way ANOVA). Error bars show means±SEM.
Cells were plated, treated and incubated in phenol red free medium. Following treatment medium was collected and assessed for LDH release using the CytoTox96 non-radioactive cytotoxicity assay (Promega) as per manufacturer's instructions. Kinetic cell death assays were performed using SytoxOrange and the Biotek Cytation5.
Cells were primed with LPS (100 ng/ml) from Escherichia coli serotype EH100 (ra) TLRgrade for 3 h followed by stimulation with the inflammasome activator Nigericin ([…]) for 1 h. For noncanonical inflammasome activation, cells were primed with […] Pam3CSK4 (Invivogen) for 2 h, followed by transfection of LPS (2 μg/ml) using Lipofectamine 2000 for 16 hours.

GSDMD = biological target: T1, GSDMD (Mus musculus, UniProt Q9D8T2); experiment: MMF-Yne click chemistry labeling and streptavidin pulldown in BMDM lysates; type: binding
T1 construct: We also immunoprecipitated GSDMD from fumarate treated BMDMs; endogenous in cells; host or cells: primary mouse BMDMs
T1 sequence (Q9D8T2 1-487): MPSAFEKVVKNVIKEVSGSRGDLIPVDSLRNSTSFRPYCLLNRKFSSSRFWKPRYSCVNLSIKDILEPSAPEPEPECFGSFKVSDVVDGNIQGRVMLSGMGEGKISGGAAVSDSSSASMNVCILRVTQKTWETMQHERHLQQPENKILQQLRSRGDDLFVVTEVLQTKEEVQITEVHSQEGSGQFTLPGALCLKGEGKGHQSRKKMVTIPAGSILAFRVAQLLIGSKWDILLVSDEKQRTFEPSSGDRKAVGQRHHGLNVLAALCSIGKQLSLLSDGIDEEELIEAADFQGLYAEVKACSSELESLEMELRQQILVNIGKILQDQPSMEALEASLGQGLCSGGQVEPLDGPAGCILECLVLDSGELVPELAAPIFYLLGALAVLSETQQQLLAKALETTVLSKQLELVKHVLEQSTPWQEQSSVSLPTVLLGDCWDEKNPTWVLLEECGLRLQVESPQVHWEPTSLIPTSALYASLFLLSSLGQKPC
Experimental: FIG. 10. Illustrative schematic of click-chemistry based proteomics. Schematic representation of MMF-Yne proteomics. Primary WT BMDMs were treated with LPS for 2 hrs, MMF-Yne for 1 hour and nigericin (10 μM) for 1 hour. Lysates were subsequently Cu2+ clicked using a biotin-azide and streptavidin beads for pulldown of MMF-Yne interacting proteins. Streptavidin beads were digested using trypsin, reduced and alkylated and subjected to mass spec analysis.
Cells treated with or without the MMF-Alkyne probe were lysed and quantified by protein DC assay. Proteome samples (2 mg/ml) were incubated with TCEP, TBTA ligand, copper sulphate and Biotin Azide for 1 hour at room temperature with vortexing every 15 minutes. Precipitated proteins were centrifuged for 5 minutes at 4,600 g. Protein pellets were washed twice with ice cold methanol and sonicated in 1.2% SDS. Samples were heated at 95° C. for 5 minutes and diluted to a final volume of […] with PBS (0.2% SDS). An aliquot of the post-clicked lysate was retained and the remainder was incubated with streptavidin beads on a rotator overnight at 4 C. Samples were rotated at room temperature for 2 hours to resolubilize the SDS. Beads were washed five times with 0.2% SDS/PBS and placed on a rotator for 10 minutes in between washes. Beads were washed with ultra-pure water a further 3 times. […]

SMILES: COC(=O)/C=C/C(=O)OC [Fumarate, Dimethyl fumarate]
- inhibitory effect on pyroptosis after poly (dA:dT) (BMDMs; LPS primed 2 hours, fumarate 25 μM, LDH and GSDMD immunoblot): inhibitory effect
- inhibitory effect on pyroptosis after Salmonella infection (BMDMs; fumarate 25 μM 1 hour, MOI 10, 6 hours, LDH and GSDMD immunoblot): inhibitory effect
- inhibitory effect on pyroptosis after transfected LPS (BMDMs; noncanonical inflammasome): inhibitory effect
- MMF-Yne labeling of GSDMD in presence of competitor (GSDMD; streptavidin pulldown from clicked lysates): blocked
- MMF-Yne signal in pyroptotic lysates in presence of unlabeled competitor (GSDMD; streptavidin-IR dye immunoblot): reduced
